Values quoted from earlier work, collected in patent US10478472B2, “Combination of tolerogenic peptides and TFG-B for use in the induction and maintenance of oral tolerance in young mammals” (NESTEC S.A., priority 2015, dated 2019).

Conditions: identified as part of a longer peptide sequence in WO2000/42863

Row | Substance | inducers of oral tolerance
1 | EVDDEALEK (listed as Bos taurus) [SEQ ID No. 8, BLG peptide, position 143-151] | inducers of oral tolerance
2 | IDALNENK (listed as Bos taurus) [SEQ ID No. 6, BLG peptide, position 100-107] | inducers of oral tolerance
3 | VLDTDY (listed as Bos taurus) [SEQ ID No. 7, BLG peptide, position 110-115] | inducers of oral tolerance
